These results are taken from patent US5618804A, “Methanediphosphonic acid derivative, process for production thereof and use for pharmaceuticals” (Toray Industries, Inc., priority 1992, dated 1997).

The structures appear in SMILES notation.

One test concerns adjuvant arthritis. The experiment in a line: Adjuvant arthritis test (foot edema and osteoclasia). The note with it: 20 mg/kg s.c., days 8-21; for Inhibition rate of osteoclasia with respect to control group: 22nd day, left and right hind legs, soft X-ray. It is filed as in vivo, rat (7-week-old female Lewis rats).
In test [1] the test system is Mouse Macrophage Cell Line J774-1. The experiment in a line: Inhibition of IL-1 production by LPS-stimulated mouse macrophage cell line J774-1 (IL-1 activity by thymocyte proliferation). It is filed as cell-based. The note with it: 100 μM compound, 1 μg/ml LPS, 24 h, read-out: IL-1 production inhibition rate with respect to control group. As to the method: Effect Against Production of IL-1 by Mouse Macrophage Cell Line J774-1
With this cell line, the inhibitory effects to IL-1 production of the compounds according to the present invention were determined by the following procedure.
J774-1 cells were cultured in an RPMI-1640 culture medium containing 10% fetal calf serum and 50 μM of 2-mercaptoethanol, and prepared to a cell concentration of 2×10^5 cells/ml. The cell suspension was distributed into a 24-well plate to 1 ml per well, and cultured for 30 minutes. […]
A two-fold serial dilution was made of the above obtained sample in a 96-well multiplate to a volume of 50 μl per well, and 50 μl of the T cell suspension was added to each well. The T cells were cultured for 72 hours, and the IL-1 activity was determined by the rate of cell proliferation. The cell proliferation was calculated using as the value of the absorbance at 570 nm of the pigment produced upon reduction of 3-[4,5-dimethylthiazole-2-yl]-2,5-diphenyltetrazolium bromide by the mitochondria of the viable cells, added at 4 hours prior to completion of the culturing, with 100% proliferation defined as the maximum proliferation of T cells induced by recombinant human IL-1, 0% defined as proliferation with no addition of IL-1, and the units of the sample defined as the degree of dilution of the sample which caused 50% proliferation of the T cells. […]

The next test has as its system Rabbit cartilage cells. The experiment in a line: IL-1-inhibiting effect: proteoglycan degradation in IL-1-stimulated rabbit cartilage cells. It is filed as cell-based, rabbit (New Zealand white). The note with it: IL-1-stimulated (30 units/ml rhIL-1β), 100 μM compound, 24 h. As to the method: Rabbit cartilage cells are separated from knee joint and cultured. When they are stimulated with IL-1, proteoglycan, the main constituent glycoprotein of cartilage cells, is degraded. Using this consequence as an index, the IL-1-inhibiting effects of the compounds according to the present invention were determined in the following manner.
Three-week-old male New Zealand white rabbits weighing 250 g-300 g were sacrified under diethyl ether anesthesia, and their knee joints were separated. The cartilaginous sections were cut out from the knee joint with a scalpel, and then immersed in CMF solution containing 0.14M sodium chloride, 4 mM potassium chloride, 0.4 mM sodium dihydrogen phosphate, 12 mM sodium bicarbonate, 0.2 mM potassium dihydrogen phosphate and 11 mM glucose. The cartilage was placed in 0.1% EDTA and incubated at 37° C. for 20 minutes. The supernatant was removed off, 0.15% trypsin was added to the mixture, and then that was incubated at 37° C. for 60 minutes. The mixture was washed 3 times with CMF solution, and then placed in […] and further treated at 37° C. for 105 minutes. […]
Each of the obtained counts was divided by the count at the initial addition of inorganic sulfuric acid, and expressed as a percentage. […]

For another test, the system named is neutrophils. The experiment in a line: Inhibition of active oxygen release from fMLP-stimulated human neutrophils (CLA chemiluminescence). The format is cell-based. Particulars: 10 μm (so in the source). As to the method: Neutrophils are known to ingest foreign bodies for their removal and to produce active oxygen and digestive enzymes, as a biological defense mechanism. However, during chronic inflammation, etc., the active oxygen and digestive enzymes produced by neutrophils also damage normal tissue, and are thought to further reinforce inflammation. Here, the effects of the compounds according to the present invention against the release of active oxygen from neutrophils were determined in the following manner.
Using 3.8% sodium citrate as an anticoagulant, 50 ml of blood was taken from a human vein. […] Of these neutrophils, 1×10^5 cells were incubated at 37° C. with […] of the stimulant, formyl-methionyl-leucyl-phenylalanine (fMLP), and at the same time the compounds according to the present invention were added thereto and the production of active oxygen was measured. For the measurement of the active oxygen, 2-methyl-6-phenyl-3,7-dihydroimidazo [1,2a]pyrazine-3-one (CLA) was reacted therewith resulting in excited carbonyl compounds, and utilizing the phenomenon whereby light is emitted at 380 nm during their transition to ground state, the maximum luminescence intensity was measured with a luminometer. The inhibition rate against active oxygen production was calculated according to the following equation. […]

Another test concerns osteoclasts. The experiment in a line: Inhibition of active-type vitamin D3-stimulated bone resorption (resorption pit formation on dentin slices). It is filed as cell-based, mouse (ICR). The note with it: 10 nM active-type vitamin D3, 4 days. An excerpt: In conditions of osteoporosis, it is thought that the balance between bone formation and bone resorption is lost, with bone resorption being accelerated. Bone resorption is thought to occur due to the activation and increase in the number of osteoclasts, and a model thereof is an experiment in which mouse osteocytes are planted on dentin slices, causing bone resorption due to the stimulation of active-type vitamin D3. Using this model, the bone resorption-inhibiting effects of the compounds according to the present invention were determined.
The femurs and tibias were separated from 10 to 15- day-old ICR mice, and minced in an α-MEM culture medium containing 5% fetal calf serum, and an osteoclast suspension was prepared containing bone marrow cells and bone matrix. The large bone fragments were removed using a nylon mesh, and the viable cells were stained using trypan blue staining, while the osteoclasts were stained using tartaric acid-resistant acidic phosphatase staining, and a cell suspension was prepared which contained the osteoclasts at a proportion of about 0.05-0.1%. The dentin was cut to thicknesses of 150 μm using a low-speed rotating diamond cutter, and punched with a puncher to the size of wells of a 96-well plate. The dentin slices were placed in a 96-well plate, and the cell suspension prepared as described above was placed thereupon to a concentration of 500 osteoclasts per well. As a stimulant, 10 nM active-type vitamin D3 was added thereto, and at the same time the preparations according to the present invention were added thereto to concentrations of 10 μM and 100 μM. The cells were cultured at 37° C. in 10% CO2 environment, and after 4 days' culture the resorption pits which formed on the dentin slices were stained with hematoxylin, and then observed under a microscope and counted. The rate of inhibition of resorption pit formation was calculated according to the following equation. [formula]
The results were indicated with "*" in cases where, based on statistical calculation using the Student t-test, the level of significance was P<0.05 and with "**" in cases where the level of significance was P<0.01 with respect to the active-type vitamin D3 -stimulated control group.

For orientation: inhibition means the percentage by which the read-out fell short of the control. On to `O=P(O)(O)C(Sc1ccc2ccccc2c1)P(=O)(O)O` [Example 2, 2-naphthylthiomethane Diphosphonic Acid], for which the “Inhibition rate of osteoclasia with respect to control group” value (“Inhibition rate of osteoclasia” below) in the test on adjuvant arthritis is given as 75.2%. The “Inhibition rate of edema with respect to control group” value (from here on “Inhibition rate of edema”) is given as 76.8% with adjuvant arthritis (left paw, 17th day); 94.5% in the test with adjuvant arthritis (left paw, 21st day); 35.2% in the test on adjuvant arthritis (right paw, 17th day); 44.3% in the test on adjuvant arthritis (right paw, 21st day). In addition, in test [1], the inhibition at 100 µM turned out to be 41.7%. In addition, in the test on Rabbit cartilage cells (not stimulated 0.45, IL-1-stimulated control 0.11), the “proteoglycan count in cell layer relative to count at initial addition of inorganic sulfuric acid” value turned out to be 0.31 ± 0.011. For the same compound, in the test on Rabbit cartilage cells (not stimulated 0.63, IL-1-stimulated control 1.06), the “proteoglycan count in supernatant relative to count at initial addition of inorganic sulfuric acid” value was 0.78 ± 0.015. Further, in the test with neutrophils, the “Active oxygen production inhibition rate” value came out at 29.4 ± 6.58%. Also, the “Inhibition rate (resorption pit formation) with respect to control” value was found to be 18.8 ± 6.23% with osteoclasts (10 μM) and 92.1 ± 0.43% in the test with osteoclasts (100 μM).

As to `COc1ccc2cc(SC(P(=O)(O)O)P(=O)(O)O)ccc2c1` [Example 4, 6-Methoxy-2-naphthylthiomethanediphosphonic Acid], the “Inhibition rate of osteoclasia” value with adjuvant arthritis turned out to be 55.2%. Also, the “Inhibition rate of edema” value in the test with adjuvant arthritis (left paw, 17th day) is listed as 80.0%; in the test with adjuvant arthritis (left paw, 21st day), 93.0%; in the test with adjuvant arthritis (right paw, 17th day) it was 40.8%; with adjuvant arthritis (right paw, 21st day), 33.4%. Also, the “Inhibition rate (resorption pit formation) with respect to control” value in the test on osteoclasts (10 μM) worked out at 47.7 ± 2.18%; in the test on osteoclasts (100 μM), 94.8 ± 1.04%.

As to `O=P(O)(O)C(Sc1ccc2cc(O)ccc2c1)P(=O)(O)O` [Example 6, 6-Hydroxy-2-naphthylthiomethanediphosphonic Acid], in the test with adjuvant arthritis, the “Inhibition rate of osteoclasia” value turned out to be 60.3%. Moreover, the “Inhibition rate of edema” value came out at 85.6% in the test on adjuvant arthritis (left paw, 16th day); 117.3% with adjuvant arthritis (left paw, 21st day); 31.8% with adjuvant arthritis (right paw, 16th day); 39.9% in the test on adjuvant arthritis (right paw, 21st day). The results for the “Inhibition rate (resorption pit formation) with respect to control” value in the test on osteoclasts (10 μM) and in the test on osteoclasts (100 μM) were 30.6 ± 12.5% and 90.8 ± 1.33%, respectively.
